{"source": "patent US20130171252A1", "about": "“Formulation Comprising a Type B Lantibiotic” (NOVACTA […], priority 2010, published 2013)", "key": {"[1]": {"experiment": "Susceptibility to enzymatic digestion in simulated intestinal fluid (FIG. 1)", "assay_type": "in vitro ADME", "settings": "37° C., HPLC (FIG. 1)", "experimental": "Nisin and the compound of compound 1 were tested for their susceptibility towards enzymatic digestion in the intestine using a simulated intestinal fluid (SIF). The SIF was based on the standard USP solutions for simulated intestinal fluids and its activity was confirmed against Bovine Serum Albumin (Hilger et al, Clin. Exp. Immunol. 2001, 123, 387-94). The compounds were incubated in SIF at 37° C. and their concentrations quantified by analytical HPLC (UV detection at 210 nm using the conditions outlined in Table 1)."}, "[2]": {"experiment": "Dissolution testing of the capsule of Example 1 in simulated gastric fluid", "assay_type": "physicochemical", "settings": "hard gelatine capsule size 00, 50 mg compound 1, 10 mL SGF, 37° C., stirred", "experimental": "A hard gelatine capsule (size 00) was opened into two segments and compound 1 (50 mg) was weighed into the larger segment. The capsule segment containing compound 1 was sealed by inserting and closing the smaller segment over the larger capsule section. A hard gelatine capsule (size 00) containing up to 500 mg can be prepared employing this method.\nThe capsule of Example 1 was dropped into a 10 mL of simulated gastric fluid (SGF) at 37° C. […] Samples of the solution/suspension (100 μL) were withdrawn at 1, 2, 3, 4, 5, 6, 7, 8, 9, 10, 15, 20, 25, 30 and 70 minutes after the addition of the capsule to SGF.\nThe samples were clarified using a bench top centrifuge to remove solid from the suspension. The clarified supernatants were diluted with 50% ethanol and then were analysed by HPLC."}, "[3]": {"experiment": "Example 2: solubility and dissolution behaviour from hard gelatin capsule in SGF", "assay_type": "physicochemical", "settings": "50 mg in size 00 hard gelatin capsule, 10 mL SGF, 37° C.", "experimental": "The solubility and dissolution behaviour of compound 1 contained in a hard gelatin capsule when suspended in simulated gastric fluid (SGF) has been monitored at 37° C.\nCompound 1 (50 mg) was transferred into a size 00 hard gelatin capsule. This capsule represents the lowest dose that is likely to be administered in clinical trials. The capsule was dropped into 10 mL of SGF at 37° C. and the sample was intermittently swirled by hand. Dissolution was monitored visually and by HPLC over a one hour period. For the dissolution experiment monitored by HPLC, the sample was stirred continuously with a magnetic stirrer at 37° C. 100 ul samples were withdrawn from the dissolution experiment and were diluted with 900 ul water. The diluted sample was then centrifuged to remove solid material (mostly gelatin)."}, "[4]": {"experiment": "Example 3: solubility in SIF and SGF", "assay_type": "physicochemical", "settings": "target 40 mg/ml", "experimental": "10 mg of compound 1 was suspended in […] Simulated Intestinal Fluid (SIF), and was left on a shaker for 10 minutes, after which time suspension was observed. This was in contrast to an identical sample suspended in SGF which dissolved fully after the same period of time. This sample prepared at a target concentration of 40 mg/ml was centrifuged to remove sediment. The supernatant was then diluted to a target of 1 mg/ml with water and compound 1 content was compared against a 1 mg/mL standard prepared in 50% ethanol (aq) using a HPLC method of Example 2."}, "[5]": {"experiment": "Example 4: stability in SIF over 240 minutes (FIG. 4)", "assay_type": "in vitro ADME", "settings": "37° C., HPLC", "experimental": "Compound 1 was incubated in SIF at 37° C. for up to 240 minutes. Aliquots were withdrawn from the test sample and diluted with water prior to analysis by HPLC (as described in Example 2). The compound 1 peak area was recorded and was expressed as a percentage with respect to the time zero sample."}, "[6]": {"system": "C. diff strain 027Can", "experiment": "MIC, agar dilution susceptibility testing, C. diff strain 027Can", "assay_type": "cell-based, Clostridium difficile", "settings": "Wilkins-Chalgren Anaerobe agar, anaerobic, 37° C., 48 hours, repeat determinations", "experimental": "(§1) Susceptibility testing for Clostridium difficile strains was performed by two-fold serial antibiotic dilutions in Wilkins-Chalgren Anaerobe agar under anaerobic conditions. Vancomycin was included as a comparator drug. C. difficile cultures were inoculated onto pre-reduced Braziers (C.C.E.Y.) agar plates and grown at 37° C. for 48 hours under anaerobic conditions. Two to three colonies of the 48 hours cultures were inoculated into 5 ml of pre-reduced Schaedlers Broth and grown at 37° C. for 24 hours under anaerobic conditions. This culture was diluted with pre-reduced 0.9% NaCl to achieve the turbidity of the 0.5 McFarland standard and applied to the drug containing plates at a final inoculum of 10^5 cfu/spot. Drug-free growth control plates were included. The plates were incubated in the anaerobic chamber at 37° C. for 48 hours and examined for growth."}, "[7]": {"system": "C. diff strain 37779", "experiment": "MIC, agar dilution susceptibility testing, C. diff strain 37779", "assay_type": "cell-based, Clostridium difficile", "settings": "Wilkins-Chalgren Anaerobe agar, anaerobic, 37° C., 48 hours, repeat determinations", "experimental": "as §1"}, "[8]": {"system": "C. diff strain 19126", "experiment": "MIC, agar dilution susceptibility testing, C. diff strain 19126", "assay_type": "cell-based, Clostridium difficile", "settings": "Wilkins-Chalgren Anaerobe agar, anaerobic, 37° C., 48 hours, repeat determinations", "experimental": "as §1"}, "[9]": {"system": "C. diff strain B32", "experiment": "MIC, agar dilution susceptibility testing, C. diff strain B32", "assay_type": "cell-based, Clostridium difficile", "settings": "Wilkins-Chalgren Anaerobe agar, anaerobic, 37° C., 48 hours", "experimental": "as §1"}, "[10]": {"system": "C. diff strain E16", "experiment": "MIC, agar dilution susceptibility testing, C. diff strain E16", "assay_type": "cell-based, Clostridium difficile", "settings": "Wilkins-Chalgren Anaerobe agar, anaerobic, 37° C., 48 hours", "experimental": "as §1"}, "[11]": {"system": "C. diff strain P24", "experiment": "MIC, agar dilution susceptibility testing, C. diff strain P24", "assay_type": "cell-based, Clostridium difficile", "settings": "Wilkins-Chalgren Anaerobe agar, anaerobic, 37° C., 48 hours", "experimental": "as §1"}, "[12]": {"system": "C. diff strain 027SM", "experiment": "MIC, agar dilution susceptibility testing, C. diff strain 027SM", "assay_type": "cell-based, Clostridium difficile", "settings": "Wilkins-Chalgren Anaerobe agar, anaerobic, 37° C., 48 hours", "experimental": "as §1"}, "[13]": {"system": "C. diff strain P62", "experiment": "MIC, agar dilution susceptibility testing, C. diff strain P62", "assay_type": "cell-based, Clostridium difficile", "settings": "Wilkins-Chalgren Anaerobe agar, anaerobic, 37° C., 48 hours", "experimental": "as §1"}, "[14]": {"system": "C. diff strain E101", "experiment": "MIC, agar dilution susceptibility testing, C. diff strain E101", "assay_type": "cell-based, Clostridium difficile", "settings": "Wilkins-Chalgren Anaerobe agar, anaerobic, 37° C., 48 hours", "experimental": "as §1"}, "[15]": {"system": "C. diff strain E4", "experiment": "MIC, agar dilution susceptibility testing, C. diff strain E4", "assay_type": "cell-based, Clostridium difficile", "settings": "Wilkins-Chalgren Anaerobe agar, anaerobic, 37° C., 48 hours", "experimental": "as §1"}, "[16]": {"system": "C. diff strain P49", "experiment": "MIC, agar dilution susceptibility testing, C. diff strain P49", "assay_type": "cell-based, Clostridium difficile", "settings": "Wilkins-Chalgren Anaerobe agar, anaerobic, 37° C., 48 hours", "experimental": "as §1"}, "[17]": {"system": "C. diff strain P59", "experiment": "MIC, agar dilution susceptibility testing, C. diff strain P59", "assay_type": "cell-based, Clostridium difficile", "settings": "Wilkins-Chalgren Anaerobe agar, anaerobic, 37° C., 48 hours", "experimental": "as §1"}, "[18]": {"system": "C. diff strain 630", "experiment": "MIC, agar dilution susceptibility testing, C. diff strain 630", "assay_type": "cell-based, Clostridium difficile", "settings": "Wilkins-Chalgren Anaerobe agar, anaerobic, 37° C., 48 hours, repeat determinations", "experimental": "as §1"}}, "note": "Read-outs that look alike come from different tables or passages of the source."}
{"compound": "CCC(C)[C@@H]1NC(=O)C2NC(=O)[C@H](CC(C)C)NC(=O)[C@H](NC(=O)[C@H]3CSC[C@H](N)C(=O)N[C@@H](CO)C(=O)NCC(=O)N[C@@H](Cc4c[nH]c5ccccc45)C(=O)N[C@@H](C(C)C)C(=O)N3)[C@H](C)SC[C@H](NC(=O)[C@H](CCC(=O)O)NC1=O)C(=O)NCC(=O)N[C@@H]1C(=O)N[C@@H](CC(C)C)C(=O)N[C@@H](C(C)C)C(=O)N[C@@H](CS[C@H]2C)C(=O)N[C@@H](C)C(=O)N[C@H](C(=O)NCCCCCCCN)CS[C@H]1C", "note": "(stereo partly shown) [Compound 1, Deoxyactagardine B (1,7-diaminoheptane) monocarboxamide]", "values": [{"measurement": "stability in SIF", "setting": "[1]", "value": "essentially stable"}, {"measurement": "time to complete release from the capsule into SGF", "setting": "[2]", "value": "≤ 4", "unit": "min"}, {"measurement": "dissolution time in SGF", "setting": "[3]", "value": "≤ 3", "unit": "min"}, {"measurement": "time in which the bulk dissolves in SGF", "setting": "[3]", "value": "less than 5 minutes"}, {"measurement": "time to reach saturation dissolution in SGF", "setting": "[3]; HPLC (FIG. 3)", "value": 3, "unit": "min"}, {"measurement": "solubility at 10 min", "setting": "[4]; SGF, 10 minutes on shaker, read-out: solubility in SGF", "value": 40, "unit": "mg/mL"}, {"measurement": "solubility at 10 min", "setting": "[4]; Simulated Intestinal Fluid (SIF), Simulated Intestinal Fluid pH 6.8, 10 minutes on shaker, supernatant by HPLC, read-out: solubility in SIF", "value": "< 0.8", "unit": "mg/mL"}, {"measurement": "peak area as percentage with respect to the time zero sample", "setting": "[5]", "value": "no significant reduction"}]}
{"compound": "Deoxyactagardine B (1,9-diaminononane) monocarboxamide [Compound 7]", "values": [{"measurement": "MIC", "setting": "[6]; listed as Comp 7", "value": 0.5, "unit": "µg/mL"}]}
{"compound": "deoxyactagardine B [DAB]", "values": [{"measurement": "MIC", "setting": "[7]", "value": 4, "unit": "µg/mL"}, {"measurement": "MIC", "setting": "[8]", "value": 4, "unit": "µg/mL"}, {"measurement": "MIC", "setting": "[9]", "value": 2, "unit": "µg/mL"}, {"measurement": "MIC", "setting": "[10]", "value": 2, "unit": "µg/mL"}, {"measurement": "MIC", "setting": "[11]", "value": 2, "unit": "µg/mL"}, {"measurement": "MIC", "setting": "[12]", "value": 2, "unit": "µg/mL"}, {"measurement": "MIC", "setting": "[13]", "value": 2, "unit": "µg/mL"}, {"measurement": "MIC", "setting": "[14]", "value": 2, "unit": "µg/mL"}, {"measurement": "MIC", "setting": "[6]", "value": 4, "unit": "µg/mL"}, {"measurement": "MIC", "setting": "[15]", "value": 2, "unit": "µg/mL"}, {"measurement": "MIC", "setting": "[16]", "value": 2, "unit": "µg/mL"}, {"measurement": "MIC", "setting": "[17]", "value": 2, "unit": "µg/mL"}, {"measurement": "MIC", "setting": "[18]", "value": 4, "unit": "µg/mL"}]}
